Measurements as given in PMC7551886, “Antitumour Effects of Astaxanthin and Adonixanthin on Glioblastoma” (Marine Drugs, 2020).

Key:
Type in all cases: cell-based, mouse
GL261 cells [1] = experiment: Cell viability (CCK-8 assay) in GL261; conditions: GL261, treated for 96 h
Procedure: U251MG, GL261, or U87MG cells were seeded onto 96-well plates at a density of 2 × 10^3 cells/well with DMEM supplemented with 10% FBS and then incubated for 24 h, after which the culture medium was changed to DMEM containing 10% FBS. Then, astaxanthin, adonixanthin or temozolomide (Tokyo Chemical Industry Co., Ltd., Tokyo, Japan) were added to the culture. Cell proliferation was determined using the CCK-8 assay according to the manufacturer’s instructions (Dojindo, Kumamoto, Japan). After each incubation, 10 μL of CCK-8 solution were added to each well. Plates were incubated for 3 h for 37 °C, and the absorbance was read at 450 nm with a reference wavelength of 630 nm using a Varioscan Flash 2.4 microplate reader (Thermo Fisher Scientific, Waltham, MA, USA).

GL261 cells [2] = experiment: Wound healing (cell migration) assay in GL261; conditions: GL261, 10 µM, 48 h
Procedure: The cell migration assay was conducted as previously described. GL261 cells and U251 cells (2.0 × 10^4 cells per well) were plated in a 12-well plate (BD Biosciences, Tokyo, Japan) with culture medium supplemented with 10% FBS. After 24 h of incubation, the medium was changed to DMEM containing 1% FBS. After 6 h, wounds were scratched by a P1000 pipette tip and washed with phosphate-buffered saline (PBS) to eliminate cell debris. Then, fresh medium was added with 10 µM astaxanthin or adonixanthin. Pictures were taken at 48 h and these scratched areas were measured using an All-in-One Fluorescence Microscope (BZ-X710; Keyence, Osaka, Japan). The cell migration rate was measured the area of the wound before migration (S0) and after migration (S1) and calculated […]. The control group was then standardized to be 100%. Wound widths at 0 h were created within 1 to 1.5 mm and data were excluded if they were not suitable for that width.

Akt = experiment: Immunoblotting, phosphorylation of Akt in GL261; conditions: GL261, 10 µM, 6 h post-treatment
Procedure: (§1) GL261 cell was seeded at 2.5 × 10^4 cells per well in 24-well plates with culture medium supplemented with 10% FBS. After 24 h of incubation, the medium was changed to DMEM containing 10% FBS and 0.1%DMSO PBS, 300 μM temozolomide, 10 μM astaxanthin, or 10 μM adonixanthin was added for 6 and 48 h. Cells were lysed in a special buffer (RIPA buffer R0278; Sigma-Aldrich, St. Louis, MO, USA) with a protease inhibitor cocktail (Sigma-Aldrich), phosphatase inhibitor cocktails 2 and 3 (Sigma-Aldrich), and sample buffer (Wako, Osaka, Japan). The protein concentration was determined by comparison with a known concentration of bovine serum albumin using the BCA Protein Assay Kit (Thermo Fisher Scientific). The amount of total protein was 2 μg. […] The band intensity was […] using an Immuno Star LD (Wako). Band intensity was measured using an LAS-4000 UV mini Luminescent Image Analyzer (Fujifilm, Tokyo Japan) and Multi Gauge Version 3.0 (Fujifilm). The phosphorylation of ERK1/2, Akt, and p38 MAPK was measured by normalizing against total ERK1/2, total Akt, and total p38 MAPK. […]

p27 = experiment: Immunoblotting, p27 expression in GL261; conditions: GL261, 10 µM, 48 h
Procedure: as §1, with “μg. Equal amounts of protein in sample buffer containing 10% 2-mercaptoethanol were subjected to sodium dodecyl sulphate polyacrylamide gel electrophoresis (SDS-PAGE) in 5-20% gradient gels (SuperSep Ace; Wako), and the separated proteins were transferred to polyvinylidene difluoride membrane (Immobilon-P; Merck Millipore Corporation, Bedford, MA, USA). After blocking for 30 min with Blocking One-P (Nacalai Tesque), we incubated the membranes with primary antibodies overnight at 4 °C.” for “μg.”

MMP-2 = experiment: Immunoblotting, MMP-2 expression in GL261; conditions: GL261, 10 µM, 48 h
Procedure: as §1

NADPH oxidase 4 (Nox4) = experiment: Immunoblotting, Nox4 expression in GL261; conditions: GL261, 10 µM, 6 h
Procedure: as §1

[3] = tested on: intracellular ROS in GL261 cells; experiment: Reactive oxygen species assay (CM-H2DCFDA); conditions: GL261, 1 and 10 µM, 6 h
Procedure: Intracellular radical activation within GL261 cells was measured with 5-(and-6)-chloromethyl—2′,7′-dichlorodihydrofluorescein diacetate, acetyl ester (CM-H2DCFDA; Thermo Fisher Scientific, MA, USA). Six hours after treatment of temozolomide, astaxanthin, or adonixanthin, CM-H2DCFDA was added to the culture medium and incubated at 37 °C for 1 h under shading in GL261. Fluorescence was measured using a Varioscan Flash 2.4 microplate reader (Thermo Fisher Scientific, MA, USA) at 485 (excitation)-535 nm (emission). Measurements were performed 0, 30, and 60 min after the addition of CM-H2DCFDA.

Row | Compound | concentration above which cell viability was suppressed (GL261 cells [1]) | suppression of cell migration (GL261 cells [2]) | phosphorylation of Akt (Akt) | expression of p27 (p27) | MMP-2 expression (MMP-2) | expression of Nox4 (NADPH oxidase 4 (Nox4)) | amount of intracellular ROS [3]
1 | CC1=C(/C=C/C(C)=C/C=C/C(C)=C/C=C/C=C(C)/C=C/C=C(C)/C=C/C2=C(C)C(=O)[C@@H](O)CC2(C)C)C(C)(C)C[C@H](O)C1 [Adonixanthin, adonixanthin] | > 0.1 µM | 13.74 ± 4.01% | decreased | increased | decreased | significantly decreased | decreased
2 | CC1=C(/C=C/C(C)=C/C=C/C(C)=C/C=C/C=C(C)/C=C/C=C(C)/C=C/C2=C(C)C(=O)[C@@H](O)CC2(C)C)C(C)(C)C[C@H](O)C1=O [Astaxanthin, astaxanthin] | more than 5 µM | 8.84 ± 2.09% | decreased | increased | decreased | no change | decreased
